Assay results published in ChEMBL document CHEMBL1201862, “PubChem BioAssay data set” (2004).
Active and inactive are the calls of the source. Cut-off read from the data, not from the text of the source, for most assays here: actives have a measured EC50 and inactives only a lower limit.

Columns and labels:
Streptokinase A = target: T1, Streptokinase A (Streptococcus pyogenes serotype M1, UniProt P10520); experiment: S. pyogenes streptokinase expression inhibitors, potency, dose response, plasminogen activation absorbance, OD405 (AID 1914); assay type: functional, Streptococcus pyogenes M1 GAS;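 note: secreted streptokinase activity via plasminogen activation per viability signal from cell pellet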
T1 sequence (P10520 whole entry): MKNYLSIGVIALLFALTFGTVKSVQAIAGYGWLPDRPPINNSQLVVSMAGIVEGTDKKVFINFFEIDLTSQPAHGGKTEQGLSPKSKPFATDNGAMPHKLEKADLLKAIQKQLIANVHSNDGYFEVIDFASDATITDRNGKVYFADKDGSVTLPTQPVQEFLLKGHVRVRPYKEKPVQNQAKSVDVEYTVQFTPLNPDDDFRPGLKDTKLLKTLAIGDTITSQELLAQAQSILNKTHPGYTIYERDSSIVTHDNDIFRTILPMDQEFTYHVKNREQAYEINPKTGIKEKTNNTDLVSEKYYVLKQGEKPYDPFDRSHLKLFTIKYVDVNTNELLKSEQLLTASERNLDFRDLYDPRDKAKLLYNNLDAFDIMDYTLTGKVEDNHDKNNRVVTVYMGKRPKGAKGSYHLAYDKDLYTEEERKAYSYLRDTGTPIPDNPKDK

Streptococcus = experiment: Group A Streptococcus viability loss, dose response, counter-screen for streptokinase expression inhibitor project, luminescence, BacTiterGlo (AID 1915); assay type: functional, organism-based;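 note: potency for reduction of bacterial viability or growth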
[1] = tested on: Streptococcus sp. 'group A'; experiment: growth inhibition of control SK(-) GAS strain, dose response, counter-screen for streptokinase expression inhibitor project, luminescence, kanamycin, BacTiterGlo, confirmation (AID 1900); assay type: functional, organism-based
[2] = NIH-3T3 fibroblast cytotoxicity, dose response, cytotoxicity control, cell-based, fluorescence, Alamar Blue, secondary assay (AID 2327); assay type: functional;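 note: NIH-3T3 mouse fibroblasts cultured with fluconazole at 8 µg/mL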
[3] = C. albicans growth with fluconazole, confirmation, fluorescence, retest (AID 2467); assay type: functional, cell-based
H4 = experiment: Luminescence Cell-Based Dose Response HTS to Identify Activators of 5'UTR Stem-Loop Driven Prion Protein mRNA Translation in H4 Neuroglioblastoma Cells. [Related pubchem assays: 1829 (Project Summary), 1814 (Primary HTS)]; assay type: functional; settings: Homo sapiens
[4] = Luminescence Cell-Based Dose Response HTS to Identify Activators of Luciferase Translation or Activity in H4 […] Cells. [Related pubchem assays: 1829 (Project Summary), 1814 (Primary HTS)]; assay type: functional
[5] = Luminescence Cell-Based Dose Retest to Confirm Inhibitors of Cancer Stem Cells. [Related pubchem assays (depositor defined):AID2717, AID2721]; assay type: functional; settings: Homo sapiens
[6] = inhibitors of intracellular T. cruzi replication, confirmation, NIH3T3 host cells, beta-gal luminescence (AID 2044); assay type: functional, cell-based;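 note: intracellular parasites grown in NIH/3T3 mouse fibroblasts as host cells; luminescent beta-galactosidase reporter signal from transgenic T. cruzi replicating inside host cells; inhibitors lower the luminescence signal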
[7] = cytotoxicity toward NIH3T3 fibroblasts, dose response, counter-screen, cell-based, ATP luminescence, mouse fibroblasts (AID 2010); assay type: functional;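 note: cells exposed to compound for about 90 hours before reading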
[8] = HEp-2 cell cytotoxicity, dose response, cytotoxicity control for RSV inhibitor project, HTS (AID 2410); assay type: functional; settings: human respiratory syncytial virus
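Throughout, for AC50: cells exposed to compound for roughly 70 hours or longer before luminescence read.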

| SMILES | EC50 (Streptokinase A) | EC50 (Streptococcus) | EC50 [1] | other results |
| --- | --- | --- | --- | --- |
| Cc1nn(-c2ccccc2)c(Cl)c1C1C(C#N)=C(N)OC2=C1C(=O)CCC2 (configuration not stated) | > 150 µM (not active) | 15.9 µM (active) | 1.77 µM (active) | – |
| CCSc1cc(N2CCCC2)nc(-c2ccccc2)n1 | 66.1 µM (active) | > 150 µM (not active) | > 150 µM (not active) | – |
| Cc1ccc(Cn2ccc(NC(=O)c3cc(C)on3)n2)cc1 | – | – | – | EC50 [2]: > 150 µM (inactive); EC50 [3]: > 38 µM (not active) |
| COc1cc2c(cc1NC(=O)c1ccccc1F)CCCC2 | – | – | – | EC50 (H4): > 120 µM (not active); EC50 [4]: 89.6 µM (active) |
| O=C(CC1Nc2ccccc2NC1=O)Nc1ccccc1 (configuration not stated) | – | – | – | AC50 [5]: 0.568 µM (active) |
| Oc1c2cnnc-2nc(SCc2c(F)cccc2F)n1-c1ccc(Cl)cc1 | > 150 µM (not active) | > 150 µM (not active) | 14.1 µM (active) | – |
| COc1cc(OC)cc(-c2cc3nc4c(c(N5CCN(c6ncccn6)CC5)n3n2)CCCC4)c1 | > 150 µM (not active) | 106 µM (active) | 13.2 µM (active) | – |
| O=C(CSc1ccc2ccccc2n1)N/N=C/c1ccccc1O | > 150 µM (not active) | 2.9 µM (active) | 1.1 µM (active) | – |
| COC(=O)c1ccc(NS(=O)(=O)c2cc(-c3cc(C)no3)ccc2OC)cc1 | – | – | – | EC50 [2]: 127 µM (active); EC50 [3]: > 38 µM (not active) |
| CCCc1nc2ccccc2c(C(=O)OCC(=O)N2CCc3ccccc32)c1CC | – | – | – | EC50 [6]: 0.496 µM (active); EC50 [7]: > 60 µM (not active); AC50 [5]: 3.04 µM (active) |
| CCc1c(C)c(C#N)c2nc3ccccc3n2c1S | > 150 µM (not active) | 21.5 µM (active) | 14.6 µM (active) | – |
| CCOC(=O)c1sc(Nc2nc3ccc(OC)cc3s2)cc1C | > 150 µM (not active) | 8.88 µM (active) | 9.29 µM (active) | – |
| COC(=O)[C@@H]1CCCN1Cc1nc(Cc2ccccc2F)no1 | – | – | – | EC50 [2]: > 160 µM (inactive); EC50 [3]: > 38 µM (not active) |
| Oc1nc(NN=C(S)NC2CCCCC2)nc2c1C1(CCCC1)Cc1ccccc1-2 | 16.1 µM (active) | 17.2 µM (active) | 5.2 µM (active) | CC50 [8]: 25.7 µM (active) |
| Cc1cccc(Nc2nnc(-c3ccc(N4CCOCC4)c([N+](=O)[O-])c3)c3ccccc23)c1 | > 150 µM (not active) | 125 µM (active) | 3.77 µM (active) | – |
| CCC/C(=C1/c2ccccc2C(=O)N1c1ccccc1)c1ccc2[nH]ccc2c1 | – | – | – | AC50 [5]: 1.04 µM (active) |
| S=C(NCCN1CCOCC1)NC1CCCC1 | – | – | – | EC50 [2]: > 150 µM (inactive); EC50 [3]: > 38 µM (not active) |
| COCCn1c(SCC(=O)Nc2ccc(F)cc2)nc2c3ccccc3nc-2c1O | > 150 µM (not active) | > 150 µM (not active) | > 150 µM (not active) | – |
| Fc1ccccc1COc1ccc(-c2nnn(Cc3ccccc3F)n2)cc1 | – | – | – | AC50 [5]: 5.63 µM (active) |
